According to ChEMBL document CHEMBL5512619, “Anticancer mechanism of coumarin-based derivatives” (Eur J Med Chem, 2024):
pIC50, pKd: −log10 of the molar value.

What was measured:
[1] = Cytotoxicity against human Lu1 cells incubated for 72 hrs by MTT assay; format: functional, cell-based; conditions: Lu1, 72 h
[2] = target: Receptor tyrosine-protein kinase erbB-2 (Homo sapiens, UniProt P04626); test: Inhibition of HER2 (unknown origin)
[3] = tested on: HeLa; test: Cytotoxicity against human HeLa cells incubated for 72 hrs by MTT assay; format: functional, cell-based
[4] = target: Epidermal growth factor receptor (Homo sapiens, UniProt P00533); test: Inhibition of EGFR (unknown origin)
[5] = tested on: HepG2; test: Cytotoxicity against human HepG2 cells incubated for 72 hrs by MTT assay; format: functional, cell-based; conditions: HepG2, 72 h
[6] = tested on: HepG2; test: Cytotoxicity against human HepG2 cells; format: functional, cell-based
[7] = Cytotoxicity against human Lu1 cells; format: functional, cell-based
[8] = tested on: HeLa; test: Cytotoxicity against human HeLa cells; format: functional, cell-based
[9] = Antiproliferative activity against human Lu1 cells assessed as inhibition of cell growth after 72 hrs by MTT assay; format: functional, cell-based; conditions: Lu1, 72 h
[10] = tested on: HeLa; test: Antiproliferative activity against human HeLa cells assessed as inhibition of cell growth after 72 hrs by MTT assay; format: functional, cell-based
[11] = tested on: SK-MEL-2; test: Antiproliferative activity against human SK-MEL-2 cells assessed as inhibition of cell growth after 72 hrs by MTT assay; format: functional, cell-based; conditions: SK-MEL-2, 72 h
[12] = tested on: HepG2; test: Antiproliferative activity against human HepG2 cells assessed as inhibition of cell growth after 72 hrs by MTT assay; format: functional, cell-based; conditions: HepG2, 72 h
[13] = tested on: MCF7; test: Antiproliferative activity against human MCF7 cells assessed as inhibition of cell growth after 72 hrs by MTT assay; format: functional, cell-based; conditions: MCF7, 72 h
[14] = target: Vascular endothelial growth factor receptor 2 (Homo sapiens, UniProt P35968); test: Inhibition of human VEGFR2
[15] = tested on: HepG2; test: Antiproliferative activity against human HepG2 cells measured after 24 hrs by MTT assay; format: functional, cell-based; conditions: HepG2, 24 h
[16] = tested on: A549; test: Antiproliferative activity against human A549 cells measured after 24 hrs by MTT assay; format: functional, cell-based; conditions: A549, 24 h
[17] = tested on: HCT-116; test: Antiproliferative activity against human HCT-116 cells measured after 24 hrs by MTT assay; format: functional, cell-based; conditions: HCT-116, 24 h
[18] = tested on: SK-OV-3; test: Antiproliferative activity against human SK-OV-3 cells measured after 21 hrs by MTT assay; format: functional, cell-based; conditions: SK-OV-3, 21 h
[19] = target: Albumin (Homo sapiens, UniProt P02768); test: Reversible binding affinity to human serum albumin
Chain of Albumin (P02768 whole entry): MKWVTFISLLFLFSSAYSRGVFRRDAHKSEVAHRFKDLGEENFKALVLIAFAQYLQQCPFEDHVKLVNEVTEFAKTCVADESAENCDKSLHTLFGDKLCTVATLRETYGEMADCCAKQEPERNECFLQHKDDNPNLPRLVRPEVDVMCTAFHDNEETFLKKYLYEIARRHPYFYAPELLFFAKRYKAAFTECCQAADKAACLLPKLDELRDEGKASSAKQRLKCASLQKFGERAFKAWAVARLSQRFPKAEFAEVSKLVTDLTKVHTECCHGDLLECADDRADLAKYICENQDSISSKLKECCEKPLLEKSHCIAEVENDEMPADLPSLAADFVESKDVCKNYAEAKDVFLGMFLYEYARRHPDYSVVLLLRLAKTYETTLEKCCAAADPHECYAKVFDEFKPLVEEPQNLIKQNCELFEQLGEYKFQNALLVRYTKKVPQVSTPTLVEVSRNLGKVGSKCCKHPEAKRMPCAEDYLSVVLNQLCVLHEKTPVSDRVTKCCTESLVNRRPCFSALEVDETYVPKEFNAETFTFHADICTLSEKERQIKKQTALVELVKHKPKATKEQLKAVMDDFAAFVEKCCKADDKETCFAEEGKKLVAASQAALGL

Chain of Epidermal growth factor receptor (P00533 whole entry): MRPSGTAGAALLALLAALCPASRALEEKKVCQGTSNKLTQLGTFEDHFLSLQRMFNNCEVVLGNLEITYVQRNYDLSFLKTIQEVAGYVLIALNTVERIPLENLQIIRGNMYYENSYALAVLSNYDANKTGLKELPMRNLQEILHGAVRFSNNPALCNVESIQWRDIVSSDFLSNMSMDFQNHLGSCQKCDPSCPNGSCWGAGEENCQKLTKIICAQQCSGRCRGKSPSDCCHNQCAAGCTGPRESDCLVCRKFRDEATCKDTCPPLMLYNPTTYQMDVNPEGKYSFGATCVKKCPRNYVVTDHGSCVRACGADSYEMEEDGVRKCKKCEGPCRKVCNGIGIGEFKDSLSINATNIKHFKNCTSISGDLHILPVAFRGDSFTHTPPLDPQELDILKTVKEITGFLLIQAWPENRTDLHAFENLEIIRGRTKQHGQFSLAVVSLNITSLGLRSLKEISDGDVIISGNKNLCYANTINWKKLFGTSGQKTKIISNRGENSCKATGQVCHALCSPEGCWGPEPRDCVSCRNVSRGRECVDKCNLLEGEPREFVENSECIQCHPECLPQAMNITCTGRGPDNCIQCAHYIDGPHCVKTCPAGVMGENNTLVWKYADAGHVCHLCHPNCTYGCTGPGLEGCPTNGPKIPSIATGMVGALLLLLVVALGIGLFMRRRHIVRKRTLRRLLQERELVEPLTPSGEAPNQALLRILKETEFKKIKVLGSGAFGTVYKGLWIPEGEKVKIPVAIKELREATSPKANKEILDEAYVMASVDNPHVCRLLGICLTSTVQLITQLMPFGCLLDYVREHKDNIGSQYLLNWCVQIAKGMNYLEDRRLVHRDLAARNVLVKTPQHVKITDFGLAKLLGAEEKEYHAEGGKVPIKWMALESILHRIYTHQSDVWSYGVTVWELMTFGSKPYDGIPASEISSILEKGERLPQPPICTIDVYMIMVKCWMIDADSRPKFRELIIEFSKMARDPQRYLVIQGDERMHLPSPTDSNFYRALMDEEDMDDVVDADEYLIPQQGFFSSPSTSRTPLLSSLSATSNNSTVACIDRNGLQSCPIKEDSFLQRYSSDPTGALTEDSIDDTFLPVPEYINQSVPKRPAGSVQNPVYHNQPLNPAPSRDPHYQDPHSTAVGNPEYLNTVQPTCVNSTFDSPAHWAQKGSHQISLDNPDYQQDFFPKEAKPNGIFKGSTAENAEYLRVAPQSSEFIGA
Chain of Receptor tyrosine-protein kinase erbB-2 (P04626 whole entry): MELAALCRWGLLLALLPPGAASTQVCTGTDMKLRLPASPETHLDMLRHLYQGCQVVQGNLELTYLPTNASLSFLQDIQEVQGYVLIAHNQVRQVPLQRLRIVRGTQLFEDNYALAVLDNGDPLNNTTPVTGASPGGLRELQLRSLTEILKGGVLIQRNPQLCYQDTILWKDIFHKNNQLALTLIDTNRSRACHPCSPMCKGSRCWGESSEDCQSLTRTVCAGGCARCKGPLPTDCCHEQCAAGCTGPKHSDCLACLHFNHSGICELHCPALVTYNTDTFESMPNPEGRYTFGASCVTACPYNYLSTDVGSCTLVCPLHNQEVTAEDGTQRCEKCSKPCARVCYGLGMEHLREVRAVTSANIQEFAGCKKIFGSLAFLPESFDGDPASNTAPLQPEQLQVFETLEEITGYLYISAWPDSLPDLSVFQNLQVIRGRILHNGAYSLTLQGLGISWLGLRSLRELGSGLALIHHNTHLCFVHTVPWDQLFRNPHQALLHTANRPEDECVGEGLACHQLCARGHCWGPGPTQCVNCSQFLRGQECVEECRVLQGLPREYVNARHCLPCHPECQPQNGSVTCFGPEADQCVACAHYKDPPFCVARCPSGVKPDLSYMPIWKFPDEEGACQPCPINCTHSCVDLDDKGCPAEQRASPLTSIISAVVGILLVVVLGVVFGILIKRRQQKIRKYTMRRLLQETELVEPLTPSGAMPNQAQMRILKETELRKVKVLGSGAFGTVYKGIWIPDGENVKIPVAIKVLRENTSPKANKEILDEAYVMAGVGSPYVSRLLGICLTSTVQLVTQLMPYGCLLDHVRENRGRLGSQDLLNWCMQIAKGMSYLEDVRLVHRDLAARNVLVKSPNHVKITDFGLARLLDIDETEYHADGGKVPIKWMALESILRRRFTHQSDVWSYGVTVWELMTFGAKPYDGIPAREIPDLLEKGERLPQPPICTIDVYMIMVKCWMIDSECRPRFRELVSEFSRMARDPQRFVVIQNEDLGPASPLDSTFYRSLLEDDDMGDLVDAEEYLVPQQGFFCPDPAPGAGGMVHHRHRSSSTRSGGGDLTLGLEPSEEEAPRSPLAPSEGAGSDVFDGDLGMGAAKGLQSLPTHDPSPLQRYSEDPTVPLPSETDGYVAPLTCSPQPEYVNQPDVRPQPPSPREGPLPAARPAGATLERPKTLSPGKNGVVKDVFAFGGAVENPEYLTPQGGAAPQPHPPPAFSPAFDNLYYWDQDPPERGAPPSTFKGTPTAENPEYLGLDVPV
Chain of Vascular endothelial growth factor receptor 2 (P35968 whole entry): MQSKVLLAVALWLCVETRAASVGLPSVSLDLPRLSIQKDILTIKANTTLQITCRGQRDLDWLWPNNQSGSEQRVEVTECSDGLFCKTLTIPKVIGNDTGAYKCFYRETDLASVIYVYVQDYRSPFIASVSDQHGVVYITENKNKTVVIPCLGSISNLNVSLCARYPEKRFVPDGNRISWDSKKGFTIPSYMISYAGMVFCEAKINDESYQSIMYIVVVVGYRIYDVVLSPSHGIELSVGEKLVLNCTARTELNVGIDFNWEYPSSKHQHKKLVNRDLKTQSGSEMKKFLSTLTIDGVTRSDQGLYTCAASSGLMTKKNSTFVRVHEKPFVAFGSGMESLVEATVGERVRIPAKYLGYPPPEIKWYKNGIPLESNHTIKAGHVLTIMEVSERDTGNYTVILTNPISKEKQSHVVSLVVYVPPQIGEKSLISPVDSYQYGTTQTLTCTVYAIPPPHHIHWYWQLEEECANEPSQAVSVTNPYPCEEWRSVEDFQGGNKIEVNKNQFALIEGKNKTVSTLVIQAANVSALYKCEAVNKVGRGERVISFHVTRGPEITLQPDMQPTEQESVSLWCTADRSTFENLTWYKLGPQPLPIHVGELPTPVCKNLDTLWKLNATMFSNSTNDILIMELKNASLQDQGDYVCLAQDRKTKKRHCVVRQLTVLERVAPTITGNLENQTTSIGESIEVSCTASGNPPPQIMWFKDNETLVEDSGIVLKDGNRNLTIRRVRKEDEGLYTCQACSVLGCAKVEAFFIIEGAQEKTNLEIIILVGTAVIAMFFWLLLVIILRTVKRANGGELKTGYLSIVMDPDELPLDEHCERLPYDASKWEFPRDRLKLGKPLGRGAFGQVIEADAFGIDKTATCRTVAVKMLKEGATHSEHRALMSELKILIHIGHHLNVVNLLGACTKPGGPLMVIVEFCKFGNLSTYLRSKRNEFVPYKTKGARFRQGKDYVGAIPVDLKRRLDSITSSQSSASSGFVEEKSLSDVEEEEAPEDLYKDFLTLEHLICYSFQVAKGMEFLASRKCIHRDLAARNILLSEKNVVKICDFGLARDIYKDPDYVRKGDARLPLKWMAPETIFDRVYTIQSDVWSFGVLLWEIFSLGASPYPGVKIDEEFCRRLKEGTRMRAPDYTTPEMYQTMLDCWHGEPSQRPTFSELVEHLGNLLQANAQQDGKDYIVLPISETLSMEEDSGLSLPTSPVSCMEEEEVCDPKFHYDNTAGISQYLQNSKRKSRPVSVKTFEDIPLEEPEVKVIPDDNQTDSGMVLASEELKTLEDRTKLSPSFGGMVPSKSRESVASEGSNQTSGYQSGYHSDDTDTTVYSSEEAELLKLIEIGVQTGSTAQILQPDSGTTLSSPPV

Compound | pIC50 [2] | pIC50 [4] | pIC50 [10] | pIC50 [11] | pIC50 [12] | pIC50 [13] | pIC50 [9] | further results
CC(=O)OC[C@H]1O[C@@H](n2c(-c3ccccc3)cs/c2=N\N=C(/C)c2cc3cc(Br)ccc3oc2=O)[C@H](OC(C)=O)[C@@H](OC(C)=O)[C@H]1OC(C)=O | – | – | – | – | – | – | – | pIC50 [6]: 5.93; pIC50 [7]: 5.93; pIC50 [8]: 5.93
CC(=O)OC[C@H]1O[C@@H](NC(=S)N/N=C(\C)c2c(O)c3cccc(C)c3oc2=O)[C@H](OC(C)=O)[C@@H](OC(C)=O)[C@H]1OC(C)=O | – | – | 5.89 | 5.89 | 5.89 | 5.89 | 5.89 | –
CC1SC(N2N=C(c3cc4ccccc4oc3=O)CC2c2ccc(N(C)C)cc2)=NC1=O (stereo not given) | – | – | – | – | – | – | – | pIC50 [14]: 7.47
CC(=O)OC[C@H]1O[C@@H](NC(=S)N/N=C(\C)c2cc3ccccc3oc2=O)[C@H](OC(C)=O)[C@@H](OC(C)=O)[C@H]1OC(C)=O | – | – | 5.89 | 5.89 | 5.89 | 5.89 | 5.89 | –
CC(=O)OC[C@H]1O[C@@H](NC(=S)N/N=C(\C)c2cc3cc(C)ccc3oc2=O)[C@H](OC(C)=O)[C@@H](OC(C)=O)[C@H]1OC(C)=O | – | – | 5.89 | 5.89 | 5.89 | 5.89 | 5.89 | –
COc1ccc(-c2cc(-c3cc4ccccc4oc3=O)nc(N)c2C(N)=O)cc1 | – | – | – | – | – | – | – | pIC50 [15]: 5.96; pIC50 [16]: 5.96; pIC50 [17]: 5.96
CC(=O)OC[C@H]1O[C@@H](NC(=S)N/N=C(\C)c2cc3cc(Cl)ccc3oc2=O)[C@H](OC(C)=O)[C@@H](OC(C)=O)[C@H]1OC(C)=O | – | – | 5.89 | 5.89 | 5.89 | 5.89 | 5.89 | –
COc1cc2oc(=O)ccc2cc1O[C@@H]1O[C@H](CO)[C@@H](O)[C@H](O)[C@H]1O | – | – | – | – | – | – | – | pIC50 [18]: < 4.00
CC(=O)OC[C@H]1O[C@@H](NC(=S)N/N=C(\C)c2c(C)c3ccccc3oc2=O)[C@H](OC(C)=O)[C@@H](OC(C)=O)[C@H]1OC(C)=O | – | – | 5.89 | 5.89 | 5.89 | 5.89 | 5.89 | –
CC(=O)OC[C@H]1O[C@@H](n2c(-c3ccccc3)cs/c2=N\N=C(/C)c2cc3cc(Cl)ccc3oc2=O)[C@H](OC(C)=O)[C@@H](OC(C)=O)[C@H]1OC(C)=O | – | – | – | – | – | – | – | pIC50 [6]: 5.93; pIC50 [7]: 5.93; pIC50 [8]: 5.93
CC(=O)OC[C@H]1O[C@@H](NC(=S)N/N=C(\C)c2c(O)c3ccccc3oc2=O)[C@H](OC(C)=O)[C@@H](OC(C)=O)[C@H]1OC(C)=O | – | – | 5.89 | 5.89 | 5.89 | 5.89 | 5.89 | –
Cc1cc(=O)oc2cc(NCc3ccccc3O)ccc12 | – | – | – | – | – | – | – | pKd [19]: 7.52
CC(=O)OC[C@H]1O[C@@H](n2c(-c3ccccc3)cs/c2=N\N=C(/C)c2cc3ccccc3oc2=O)[C@H](OC(C)=O)[C@@H](OC(C)=O)[C@@H]1OC(C)=O | – | – | – | – | – | – | – | pIC50 [6]: 5.93; pIC50 [7]: 5.93; pIC50 [8]: 5.93
CC(=O)OC[C@H]1O[C@@H](NC(=S)N/N=C(\C)c2cc3ccc(C)cc3oc2=O)[C@H](OC(C)=O)[C@@H](OC(C)=O)[C@H]1OC(C)=O | – | – | 5.89 | 5.89 | 5.89 | 5.89 | 5.89 | –

Further lines, with some results ahead:

pIC50 [2] | pIC50 [4] | pIC50 [10] | pIC50 [11] | pIC50 [12] | pIC50 [13] | Compound | pIC50 [9] | further results
6.89 | 6.66 | – | – | – | – | CC(=O)OC[C@H]1O[C@@H](N(C(C)=O)C2=NN(C(C)=O)C(c3cc(=O)oc4ccc(OCCC(C)C)cc34)S2)[C@H](OC(C)=O)[C@@H](OC(C)=O)[C@@H]1OC(C)=O (stereo not given in full) | – | pIC50 [1]: 5.93; pIC50 [3]: 5.93; pIC50 [5]: 5.93
6.89 | 6.66 | – | – | – | – | CCOc1ccc2oc(=O)cc(C3SC(N(C(C)=O)[C@@H]4O[C@H](COC(C)=O)[C@H](OC(C)=O)[C@H](OC(C)=O)[C@H]4OC(C)=O)=NN3C(C)=O)c2c1 (stereo not given in full) | – | pIC50 [1]: 5.93; pIC50 [3]: 5.93; pIC50 [5]: 5.93
6.82 | 6.82 | – | – | – | – | CCCCCOc1ccc2oc(=O)cc(/C=N/N=c3\scc(-c4ccccc4)n3[C@@H]3O[C@H](COC(C)=O)[C@@H](OC(C)=O)[C@H](OC(C)=O)[C@H]3OC(C)=O)c2c1 | – | pIC50 [6]: 5.93; pIC50 [7]: 5.93; pIC50 [8]: 5.93
6.89 | 6.66 | – | – | – | – | CCCCCOc1ccc2oc(=O)cc(C3SC(N(C(C)=O)[C@@H]4O[C@H](COC(C)=O)[C@@H](OC(C)=O)[C@H](OC(C)=O)[C@H]4OC(C)=O)=NN3C(C)=O)c2c1 (stereo not given in full) | – | pIC50 [1]: 5.93; pIC50 [3]: 5.93; pIC50 [5]: 5.93
6.89 | 6.66 | – | – | – | – | CC(=O)OC[C@H]1O[C@@H](N(C(C)=O)C2=NN(C(C)=O)C(c3cc(=O)oc4cc(OCCC(C)C)ccc34)S2)[C@H](OC(C)=O)[C@@H](OC(C)=O)[C@@H]1OC(C)=O (stereo not given in full) | – | pIC50 [1]: 5.93; pIC50 [3]: 5.93; pIC50 [5]: 5.93
6.89 | 6.66 | – | – | – | – | CCCCOc1ccc2oc(=O)cc(C3SC(N(C(C)=O)[C@@H]4O[C@H](COC(C)=O)[C@@H](OC(C)=O)[C@H](OC(C)=O)[C@H]4OC(C)=O)=NN3C(C)=O)c2c1 (stereo not given in full) | – | pIC50 [1]: 5.93; pIC50 [3]: 5.93; pIC50 [5]: 5.93
6.89 | 6.66 | – | – | – | – | CCOc1ccc2c(C3SC(N(C(C)=O)[C@@H]4O[C@H](COC(C)=O)[C@H](OC(C)=O)[C@H](OC(C)=O)[C@H]4OC(C)=O)=NN3C(C)=O)cc(=O)oc2c1 (stereo not given in full) | – | pIC50 [1]: 5.93; pIC50 [3]: 5.93; pIC50 [5]: 5.93
